In one data set the target is UGT1A7 (Homo sapiens, UniProt Q9HAW7). Nature of the data set: Substrate glucuronidation by recombinant UGT1A7. The format is in vitro ADME. The settings on record: UGT1A7 Bacculosomes 250 μg/ml; 7-HFC 50 μM.
For a further data set, the target named is T1, UGT1A1 (Homo sapiens, UniProt P22309).
T1 sequence (P22309 26-533): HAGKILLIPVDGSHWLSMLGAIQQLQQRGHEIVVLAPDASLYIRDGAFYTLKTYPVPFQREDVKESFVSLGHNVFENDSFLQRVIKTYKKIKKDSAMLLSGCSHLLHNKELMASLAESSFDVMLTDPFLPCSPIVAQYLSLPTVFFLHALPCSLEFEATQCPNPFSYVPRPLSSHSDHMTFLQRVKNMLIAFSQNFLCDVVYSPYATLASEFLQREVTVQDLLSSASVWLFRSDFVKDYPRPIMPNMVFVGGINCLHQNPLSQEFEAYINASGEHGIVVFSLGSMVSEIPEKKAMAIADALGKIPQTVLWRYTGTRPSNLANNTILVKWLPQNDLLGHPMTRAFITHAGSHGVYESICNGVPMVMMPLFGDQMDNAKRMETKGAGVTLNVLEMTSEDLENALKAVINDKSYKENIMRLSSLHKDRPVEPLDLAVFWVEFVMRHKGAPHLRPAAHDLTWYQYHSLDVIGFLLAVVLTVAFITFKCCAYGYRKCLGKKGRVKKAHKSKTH
Nature of the data set: Substrate glucuronidation by recombinant UGT1A1. The note with it: for 7-HFC glucuronidation rate: 7-HFC 50 μM.

The target in data set [1] is T2, UGT1A8 (Homo sapiens, UniProt Q9HAW9).
T2 sequence (Q9HAW9 26-530): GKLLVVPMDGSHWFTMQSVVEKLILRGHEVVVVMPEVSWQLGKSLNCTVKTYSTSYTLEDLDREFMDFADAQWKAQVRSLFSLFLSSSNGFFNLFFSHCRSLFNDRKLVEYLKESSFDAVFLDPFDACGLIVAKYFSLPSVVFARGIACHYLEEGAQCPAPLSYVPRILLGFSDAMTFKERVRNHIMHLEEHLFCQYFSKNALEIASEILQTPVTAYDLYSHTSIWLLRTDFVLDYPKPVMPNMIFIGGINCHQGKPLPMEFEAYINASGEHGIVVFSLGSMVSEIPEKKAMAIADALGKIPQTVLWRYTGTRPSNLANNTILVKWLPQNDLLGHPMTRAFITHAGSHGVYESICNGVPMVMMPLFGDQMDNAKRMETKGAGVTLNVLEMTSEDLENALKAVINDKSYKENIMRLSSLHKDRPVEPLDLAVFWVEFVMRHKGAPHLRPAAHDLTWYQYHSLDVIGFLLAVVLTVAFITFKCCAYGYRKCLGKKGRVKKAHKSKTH
Kind of data set: Substrate glucuronidation by recombinant UGT1A8. The note with it: UGT1A8 Supersomes 250 μg/ml; 7-HFC 50 μM.

In data set [2] the target is T3, UGT1A9 (Homo sapiens, UniProt O60656).
T3 sequence (O60656 26-530): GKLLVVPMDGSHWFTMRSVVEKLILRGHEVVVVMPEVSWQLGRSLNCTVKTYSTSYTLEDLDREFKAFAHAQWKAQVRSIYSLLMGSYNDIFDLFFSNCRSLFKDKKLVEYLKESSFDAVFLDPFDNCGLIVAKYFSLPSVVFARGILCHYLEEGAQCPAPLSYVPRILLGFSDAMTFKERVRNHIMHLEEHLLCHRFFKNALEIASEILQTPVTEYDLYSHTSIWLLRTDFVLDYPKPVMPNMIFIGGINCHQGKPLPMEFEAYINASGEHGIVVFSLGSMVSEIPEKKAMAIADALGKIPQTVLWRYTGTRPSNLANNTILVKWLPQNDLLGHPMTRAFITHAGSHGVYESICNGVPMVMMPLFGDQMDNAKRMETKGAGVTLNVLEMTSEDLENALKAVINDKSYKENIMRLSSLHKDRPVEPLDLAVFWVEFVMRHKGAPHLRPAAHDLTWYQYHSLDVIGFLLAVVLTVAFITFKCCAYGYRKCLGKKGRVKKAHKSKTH
Nature of the data set: Substrate glucuronidation by recombinant UGT1A9.

The conditions of data set [3]: healthy volunteers, concomitant diflunisal; cited from earlier work.
Another data set deals with UGT1A4 (Homo sapiens, UniProt P22310).
A further data set deals with T4, UGT1A6 (Homo sapiens, UniProt P19224).
T4 sequence (P19224 27-532): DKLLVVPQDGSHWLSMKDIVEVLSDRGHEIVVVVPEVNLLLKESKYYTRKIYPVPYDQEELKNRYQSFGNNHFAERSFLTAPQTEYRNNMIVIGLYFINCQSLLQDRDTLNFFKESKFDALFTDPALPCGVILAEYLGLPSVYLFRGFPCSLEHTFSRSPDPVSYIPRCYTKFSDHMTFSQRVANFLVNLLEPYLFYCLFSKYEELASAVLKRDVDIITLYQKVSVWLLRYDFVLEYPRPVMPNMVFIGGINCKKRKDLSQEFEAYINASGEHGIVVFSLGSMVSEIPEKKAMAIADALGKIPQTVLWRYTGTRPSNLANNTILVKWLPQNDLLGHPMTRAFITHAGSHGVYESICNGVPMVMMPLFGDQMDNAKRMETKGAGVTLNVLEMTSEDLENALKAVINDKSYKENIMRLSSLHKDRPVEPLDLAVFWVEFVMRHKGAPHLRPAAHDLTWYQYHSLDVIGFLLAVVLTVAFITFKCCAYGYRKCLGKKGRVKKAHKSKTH

The target in data set [4] is T2, UGT1A8.
The target in data set [5] is T3, UGT1A9. The settings on record: 30 min, 100 μM, pH 7.5.
Data set [6] relates to UGT enzymes of human liver microsomes. Nature of the data set: Inhibition of zidovudine glucuronidation in human liver microsomes. The format is biochemical. Here is the method:
Compounds were eluted using a binary solvent gradient system where solvent A was dilute phosphoric acid (pH 3) and solvent B was acetonitrile.
Standardized incubations utilized 500 μM zidovudine substrate, 1 mg/ml microsomal protein, 5 mM UDPGA and a 30 min incubation time. […] Int.

“And” between values parts separate entries of the source, which are not always exact repeats. Equal values may be shown once.

UGT1A7, sequence (Q9HAW7 26-530): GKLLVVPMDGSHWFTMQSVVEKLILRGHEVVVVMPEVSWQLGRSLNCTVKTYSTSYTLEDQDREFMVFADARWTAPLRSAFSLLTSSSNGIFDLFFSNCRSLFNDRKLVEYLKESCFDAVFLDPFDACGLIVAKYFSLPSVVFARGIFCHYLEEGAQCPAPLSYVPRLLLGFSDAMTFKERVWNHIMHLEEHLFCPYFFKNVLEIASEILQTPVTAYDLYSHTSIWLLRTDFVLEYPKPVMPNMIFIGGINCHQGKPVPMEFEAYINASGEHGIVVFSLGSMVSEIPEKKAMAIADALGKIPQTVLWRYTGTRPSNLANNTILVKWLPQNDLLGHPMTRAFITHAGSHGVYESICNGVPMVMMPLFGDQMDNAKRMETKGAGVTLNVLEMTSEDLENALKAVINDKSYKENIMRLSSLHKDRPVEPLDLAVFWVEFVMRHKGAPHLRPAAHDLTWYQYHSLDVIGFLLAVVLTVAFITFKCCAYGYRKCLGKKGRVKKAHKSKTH
UGT1A4, sequence (P22310 29-534): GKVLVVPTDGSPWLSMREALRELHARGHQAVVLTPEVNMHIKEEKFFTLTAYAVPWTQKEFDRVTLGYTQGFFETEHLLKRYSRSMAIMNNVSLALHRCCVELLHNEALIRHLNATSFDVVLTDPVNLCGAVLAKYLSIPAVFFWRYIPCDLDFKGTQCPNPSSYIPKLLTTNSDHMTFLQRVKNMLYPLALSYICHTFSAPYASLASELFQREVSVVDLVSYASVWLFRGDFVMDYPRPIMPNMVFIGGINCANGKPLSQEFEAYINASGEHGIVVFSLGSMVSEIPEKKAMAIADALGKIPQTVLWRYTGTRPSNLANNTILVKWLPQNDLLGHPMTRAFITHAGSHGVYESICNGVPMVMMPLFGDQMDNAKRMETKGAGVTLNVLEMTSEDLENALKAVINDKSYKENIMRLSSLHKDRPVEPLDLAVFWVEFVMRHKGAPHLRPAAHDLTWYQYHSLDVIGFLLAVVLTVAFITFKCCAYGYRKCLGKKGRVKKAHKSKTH

On to `O=c1cc(C(F)(F)F)c2ccc(O)cc2o1` [7-HFC, 7-hydroxy-4-(trifluoromethyl)coumarin], for which the 7-HFC glucuronidation rate on UGT1A7 is 564 ± 9 pmol/min/mg protein; at UGT1A1 (UGT1A1 Bacculosomes 250 μg/ml) it was 346 ± 12 pmol/min/mg protein; on UGT1A1 (UGT1A1 Supersomes 250 μg/ml), 816 ± 70 pmol/min/mg protein and 929 ± 7 pmol/min/mg protein; on UGT1A8 [1], 486 ± 5 pmol/min/mg protein; at UGT1A9 [2] (UGT1A9 Supersomes 250 μg/ml, 7-HFC 50 μM), 3976 ± 41 pmol/min/mg protein. In addition, the “7-HFC glucuronidation rate in Panvera Bacculosomes as % of Gentest Supersomes” value on UGT1A1 (UGT1A1) is 42%. Further, the “7-HFC glucuronidation rate as % of the rate for UGT1A6” value on UGT1A9 [2] (UGT1A9) is 81%.
Take `O=C(O)c1cc(-c2ccc(F)cc2F)ccc1O` [Diflunisal, reference compound]: the “decrease in indomethacin clearance” value in data set [3] is 70%.
With `CC(CCc1ccccc1)NCC(O)c1ccc(O)c(C(N)=O)c1` (stereo not drawn) [Labetalol, labetalol], the “labetalol metabolism, in words” value on UGT1A4 is reported as “No detectable metabolism was observed”. Moreover, at UGT1A6, the “labetalol metabolism, in words” value is “No detectable metabolism was observed”. The “labetalol metabolism, in words” value on UGT1A8 [4] is “No detectable metabolism was observed”. Moreover, on UGT1A9 [5], the LG1/LG2 worked out at 0.8; the “labetalol metabolite LG1, peak area normalized to internal standard” value is 38 (1); the “labetalol metabolite LG2, peak area normalized to internal standard” value was 49 (1).
As to `O=c1c(O)c(-c2ccc(O)c(O)c2)oc2cc(O)cc(O)c12` [Quercetin], in [6], the “inhibition of zidovudine metabolism, in words” value is “ineffective”.

These data come from patent US20030215462A1, “Use of UGT inhibitors to increase bioavailability” (priority 2001, published 2003).
